Measured values from paper PMC9611521, “Optimization of Resveratrol Used as a Scaffold to Design Histone Deacetylase (HDAC-1 and HDAC-2) Inhibitors” (Pharmaceuticals, 2022).

How the values were obtained:
HDAC-1 = HDAC-1 (Homo sapiens, UniProt Q13547); assay: Enzymatic HDAC inhibition assay (fluorescence), HDAC-1; type: biochemical; conditions: compound at 10 µM
Experimental: (§1) Enzymatic assays to evaluate HDAC inhibition were performed, and the design involved three steps: (a) Preliminary screening to identify the most promising compounds; (b) Evaluation by a panel of HDAC isoforms to investigate selectivity; and (c) Determination of IC50 values. Firstly, compounds (4–7; 15–26) were evaluated at 10 µM against HDAC-1 and HDAC-2 (Table 2).
(§2) The enzymatic assay to evaluate HDAC inhibitory effects for all final compounds against the distinct isoforms was carried out in accordance with the previously described procedures (Lopes et al., 2021). All compounds were initially screened at 10 µM against HDAC-1 and HDAC-2. […] All the compounds were dissolved in DMSO. A serial dilution of the compounds was performed in 100% DMSO with the highest concentration at 1 mM. Each intermediate compound dilution (in 100% DMSO) was diluted 10x in assay buffer to form a 10% DMSO intermediate dilution in HDAC assay buffer. 5 µL of this dilution was added to a 50 µL reaction to bring the final concentration of DMSO to 1% in all the reactions. Three independent experiments were carried out in triplicate for all experiments. The fluorescence intensity was measured at an excitation of 360 nm and emission of 460 nm using a Tecan Infinite M1000 microplate reader, and the percentage of activity was calculated using the formula: % activity = (F − Fb)/(Ft − Fb), where F = the intensity of fluorescence in the presence of the compound. In the absence of the test compound, the fluorescent intensity (Ft) in each dataset was defined as 100% activity, while in the absence of HDAC, the fluorescent intensity (Fb) in each dataset was set to 0% activity.

HDAC-2 = HDAC-2 (Homo sapiens, UniProt Q92769); assay: Enzymatic HDAC inhibition assay (fluorescence), HDAC-2; type: biochemical; conditions: compound at 10 µM
Sequence of HDAC-2 (Q92769 whole entry): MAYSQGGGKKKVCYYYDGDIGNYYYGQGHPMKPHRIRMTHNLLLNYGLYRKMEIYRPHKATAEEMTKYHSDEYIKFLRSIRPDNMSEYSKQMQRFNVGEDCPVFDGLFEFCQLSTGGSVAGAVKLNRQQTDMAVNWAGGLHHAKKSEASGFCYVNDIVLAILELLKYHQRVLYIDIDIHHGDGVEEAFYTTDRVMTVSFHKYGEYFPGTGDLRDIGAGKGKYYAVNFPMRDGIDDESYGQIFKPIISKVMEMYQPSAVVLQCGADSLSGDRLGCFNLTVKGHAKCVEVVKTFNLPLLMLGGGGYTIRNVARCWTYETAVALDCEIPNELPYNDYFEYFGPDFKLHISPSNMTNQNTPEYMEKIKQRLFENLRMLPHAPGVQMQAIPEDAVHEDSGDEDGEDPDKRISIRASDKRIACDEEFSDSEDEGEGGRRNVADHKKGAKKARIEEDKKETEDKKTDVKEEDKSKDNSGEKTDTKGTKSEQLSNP
Experimental: as §1, §2

SIRT1 = system: SIRT1; set-up: method as in PMID 30526767; conditions: dose-dependent experiments; cited from earlier work
HDAC isoforms = system: HDAC isoforms; set-up: method as in PMID 24023672; conditions: RVT 100 µM, nuclear extract of HeLa cells; cited from earlier work

Sequence of HDAC-1 (Q13547 whole entry, canonical isoform): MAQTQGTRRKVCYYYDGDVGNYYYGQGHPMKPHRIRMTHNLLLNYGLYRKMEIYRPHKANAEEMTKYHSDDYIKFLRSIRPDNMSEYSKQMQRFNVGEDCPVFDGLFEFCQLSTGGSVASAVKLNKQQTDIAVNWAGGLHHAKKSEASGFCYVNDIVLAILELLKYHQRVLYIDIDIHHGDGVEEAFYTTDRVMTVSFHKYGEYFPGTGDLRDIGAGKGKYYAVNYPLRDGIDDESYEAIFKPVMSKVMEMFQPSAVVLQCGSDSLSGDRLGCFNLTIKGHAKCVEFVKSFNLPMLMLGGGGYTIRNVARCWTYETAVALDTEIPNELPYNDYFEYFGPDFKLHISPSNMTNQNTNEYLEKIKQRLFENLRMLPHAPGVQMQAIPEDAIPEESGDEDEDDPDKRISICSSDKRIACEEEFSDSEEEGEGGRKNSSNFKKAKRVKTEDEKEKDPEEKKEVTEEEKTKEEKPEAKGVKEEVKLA

Row | SMILES | inhibition at 10 µM (HDAC-1) | inhibition at 10 µM (HDAC-2) | other results
1 | Nc1ccccc1NC(=O)c1ccc(COc2ccc(N3C(=O)c4ccccc4C3=O)cc2)cc1 [Compound (25)] | 14 ± 0.5% | 21 ± 0.8% | 
2 | Oc1ccc(/C=C/c2cc(O)cc(O)c2)cc1 [Resveratrol (RVT), trans-3,5,4′-trihydroxystilbene] |  |  | deacetylation rate of SIRT1 (SIRT1): increased; inhibition of HDAC-1 and HDAC-10 (HDAC isoforms): 40%; inhibition of HDAC-4 and HDAC-9 (HDAC isoforms): 50%
3 | Nc1ccc(/C=C/c2ccc(C(=O)Nc3ccccc3N)cc2)cc1 [Compound (4)] | 45 ± 1.2% | 28 ± 1% | 
4 | O=C(O)c1ccc(/C=C/c2ccccc2)cc1 [(6)] | 9 ± 1% | 0% | 
5 | NC(=O)c1ccccc1OCc1ccc(C(=O)O)cc1 [Compound (19)] | 13 ± 0.9% | 8 ± 0.6% | melting point: 196.5 to 198.6 °C
6 | Nc1ccc(OCc2ccc(C(=O)Nc3ccccc3N)cc2)cc1 [Compound (23)] | 72 ± 1.1% | 52 ± 0.8% | 
7 | O=C(O)c1ccc(COc2ccccc2)cc1 [Compound (15)] | 16 ± 0.6% | 11% | HDAC-2 inhibition (HDAC-2; 10 µM): 10 ± 0.5%
8 | Nc1ccccc1NC(=O)c1ccc(COc2ccc(O)cc2)cc1 [Compound (22)] | 96 ± 1.2% | 92 ± 0.7% | 
9 | Nc1ccccc1NC(=O)c1ccc(CNc2ccccc2)cc1 [Compound (21)] | 96 ± 1.3% | 93 ± 1.2% | 
10 | NC(=O)c1ccccc1OCc1ccc(C(=O)Nc2ccccc2N)cc1 [Compound (24)] | 86 ± 1% | 81 ± 1.1% | melting point: 162 to 163.7 °C
11 | Nc1ccccc1NC(=O)c1ccc(/C=C/c2ccccc2)cc1 [Compound (7)] | 42 ± 0.7% | 32 ± 0.7% | melting point: 177 to 179 °C
12 | Nc1ccccc1NC(=O)c1ccc(COc2ccc(N3C(=O)c4cccc([N+](=O)[O-])c4C3=O)cc2)cc1 [Compound (26)] | 1 ± 0.5% | 6 ± 0.6% | 
13 | O=C(O)c1ccc(COc2ccc(O)cc2)cc1 [Compound (17)] | 12 ± 0.7% | 11 ± 0.5% | 
14 | Nc1ccccc1NC(=O)c1ccc(COc2ccccc2)cc1 [Compound (20)] | 87 ± 1.1% | 85 ± 1.1% | 
